Source: US10125182B2, “Peptides hormone analogues derivable from preproglucagon” (IMPERIAL INNOVATIONS LIMITED, priority 2014, dated 2018)
Ends that are not written are not given here.

Experiments:
Assay type in all cases: in vivo
[1] = Rat pharmacokinetic studies: plasma concentration after subcutaneous injection with ZnCl2 (radioimmunoassay); conditions: 4 rats, 2 mg of each compound in 20 μl aqueous ZnCl2 at 1:1 molar ratio, 3 days (FIG. 7)
Experimental: Male C57BL/6 mice (Harlan) or male Wistar rats (Charles River Ltd, Margate, UK) were used for all animal experiments. The pharmacokinetics of a peptide hormone analogue of the invention in rat was evaluated over 7 days. 4 rats were injected subcutaneously with the peptide hormone analogue G2051 [SEQ ID NO 197]. Each injection was of […] total volume/rat containing 2 mg peptide and 1 zinc ion (as ZnCl2) per peptide molecule. Blood was collected at the indicated time points, and the concentration of the peptide hormone analogue was determined. Peptide levels were assessed by/using radioimmunoassay using R4 exendin-4 antibody. […] 4 rats were injected subcutaneously with the peptide hormone analogue G2051 [SEQ ID NO 197]. Each injection was of 20 μl total volume/rat containing 2 mg peptide and 1 zinc ion (as ZnCl2) per peptide molecule. Blood was collected at the indicated time points, and the concentration of the comparator compound was determined. Peptide levels were assessed by/using radioimmunoassay using R4 exendin-4 antibody.

[2] = Mice feeding studies: body weight increase over 7 days; conditions: 200 nmol/kg subcutaneous in saline, compared with comparator having only His30-His31-His32 (G1721 or G1779; FIGS. 4, 5)
[3] = Mice feeding studies: cumulative food intake after subcutaneous administration; conditions: mice fasted 16 h, over 48 hours
Experimental: Male C57BL/6 mice (Harlan) or male Wistar rats (Charles River Ltd, Margate, UK) were used for all animal experiments.
Mice were individually housed in IVC cages. Animals were randomised into treatment groups, with stratification by body weight. Mice were fasted overnight (16 hrs) prior to peptide or vehicle administration. All peptide solutions were prepared freshly, immediately prior to administration. The vehicle used for all studies was 5% v/v water and 95% v/v sodium chloride (0.9% w/v). Peptide and vehicle were administered by subcutaneous injection, with dosage corrected for bodyweight. The injection volume was […]. […] Food intake was measured at 24 and 48 hours post injection. All statistics are calculated using a one-way ANOVA with Dunnett's post-test or one-way ANOVA with Bonferroni post-test.
Peptide hormone analogues of the invention (G1698 [SEQ ID NO 1], 500 nmol/kg dosage, reconstituted in saline, and G1718 [SEQ ID NO 6], 200 nmol/kg dosage, reconstituted in saline), comparator compounds (G1697, 500 nmol/kg dosage, reconstituted in saline, and G1717, 200 nmol/kg dosage, reconstituted in saline), or saline (vehicle control group) were administered subcutaneously to mice (group size 4-6 animals). […] Food intake (in grams) was measured at time intervals over 48 hours.

Row | Substance | initial increase or spike in plasma concentration level [1] | further results
1 | HSQGTFTSDYSKYLDSKKAQEFVQWLLNT [G162] | initial increase or “spike” in plasma concentration level is observed | 
2 | HSQGTFTSDYSKYLDHRRAKDFVQWLMNT-NH2 [G94] | initial increase or “spike” in plasma concentration level is observed | 
3 | HSQGTFTSDYSKYLDSKKAQEFVEWLMNT [G202] | initial increase or “spike” in plasma concentration level is observed | 
4 | G1722: peptide hormone analogue of the invention; C-terminal extension His30-His31-His32-His33; full sequence only in FIG. 1 (HSQGTFTSDYSHYLDSKRAHEFIQWLLNGHHHH; hormone analogue) |  | reduction of body weight increase relative to saline control [2]: more potent and more sustained reduction
5 | HSQGTFTSDYSKYLDSKKAQEFVQWLMNT-NH2 [G200] | initial increase or “spike” in plasma concentration level is observed | 
6 | G1718: peptide hormone analogue of the invention; C-terminal extension His30-His31-His32-His33; full sequence only in FIG. 1 (HSQGTFTSDYSHYLDQRRAHEFIQWLLNGHHHH; hormone analogue) |  | reduction of cumulative food intake relative to saline control ([3]; 200 nmol/kg subcutaneous in saline, compared with comparator G1717 (FIG. 3)): more potent and more sustained reduction
7 | G1698: peptide hormone analogue of the invention; C-terminal extension His30-His31-His32-His33; full sequence only in FIG. 1 (HSQGTFTSDYSKYLDERRAHEFIEWLLNGHHHH; hormone analogue) |  | reduction of cumulative food intake relative to saline control ([3]; 500 nmol/kg subcutaneous in saline, compared with comparator G1697 (FIG. 2)): more potent and more sustained reduction
8 | G1781: peptide hormone analogue of the invention; full sequence only in FIG. 1 (HSQGTFTSDYSKYLDERRAHEFIEWLLNGGHHHH; hormone analogue) |  | reduction of body weight increase relative to saline control [2]: more potent and more sustained reduction
